According to ChEMBL document CHEMBL5465560, “Selectivity Literature for EUbOPEN Chemogenomic Library” (2024):
Each block holds one compound with its values, some of them ahead of it.

Experiments:
[1] = biological target: Serine/threonine-protein kinase 38 (Homo sapiens) (UniProt Q15208); experiment: Selectivity interaction (ActivX KiNativ screen (kinase selectivity in THP-1 cell lysates)) EUB0000639a STK38; type: subcellular; conditions: lysate
[2] = biological target: T1, Serine/threonine-protein kinase LATS1 (Homo sapiens) (UniProt O95835); experiment: Selectivity interaction (ActivX KiNativ screen (kinase selectivity in THP-1 cell lysates)) EUB0000639a LATS1; type: subcellular; conditions: lysate, at 0.2 µM
T1 sequence (whole entry): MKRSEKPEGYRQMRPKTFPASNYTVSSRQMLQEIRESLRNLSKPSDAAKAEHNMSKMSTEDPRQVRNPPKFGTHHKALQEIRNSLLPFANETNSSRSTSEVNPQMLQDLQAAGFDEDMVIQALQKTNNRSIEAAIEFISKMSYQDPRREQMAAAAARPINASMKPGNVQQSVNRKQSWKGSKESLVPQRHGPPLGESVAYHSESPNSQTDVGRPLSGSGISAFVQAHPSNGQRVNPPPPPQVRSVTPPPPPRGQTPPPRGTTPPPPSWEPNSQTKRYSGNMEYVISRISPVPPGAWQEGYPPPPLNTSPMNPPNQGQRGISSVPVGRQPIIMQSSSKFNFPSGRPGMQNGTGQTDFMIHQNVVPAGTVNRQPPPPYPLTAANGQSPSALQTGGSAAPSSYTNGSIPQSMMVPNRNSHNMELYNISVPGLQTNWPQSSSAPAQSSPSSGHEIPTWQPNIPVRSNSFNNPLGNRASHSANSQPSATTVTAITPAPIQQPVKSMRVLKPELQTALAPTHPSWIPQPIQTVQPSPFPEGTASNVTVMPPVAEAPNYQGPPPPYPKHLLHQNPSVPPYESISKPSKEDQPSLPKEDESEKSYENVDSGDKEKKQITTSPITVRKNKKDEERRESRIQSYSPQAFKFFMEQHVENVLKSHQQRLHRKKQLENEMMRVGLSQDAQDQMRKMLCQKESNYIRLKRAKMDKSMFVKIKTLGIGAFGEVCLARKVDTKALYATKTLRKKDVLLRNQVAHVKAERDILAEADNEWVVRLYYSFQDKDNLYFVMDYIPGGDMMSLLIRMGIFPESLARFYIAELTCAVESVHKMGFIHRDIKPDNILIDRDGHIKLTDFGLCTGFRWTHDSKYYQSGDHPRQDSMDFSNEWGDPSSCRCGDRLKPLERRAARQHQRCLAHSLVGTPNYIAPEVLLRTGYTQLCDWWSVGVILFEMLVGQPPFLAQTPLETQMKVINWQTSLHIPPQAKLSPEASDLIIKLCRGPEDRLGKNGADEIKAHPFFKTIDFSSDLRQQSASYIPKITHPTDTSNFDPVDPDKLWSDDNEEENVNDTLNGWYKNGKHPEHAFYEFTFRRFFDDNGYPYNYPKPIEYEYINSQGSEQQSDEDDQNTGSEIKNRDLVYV

[3] = biological target: T2, Protein kinase C epsilon type (Homo sapiens) (UniProt Q02156); conditions: at 10 µM
T2 sequence (whole entry): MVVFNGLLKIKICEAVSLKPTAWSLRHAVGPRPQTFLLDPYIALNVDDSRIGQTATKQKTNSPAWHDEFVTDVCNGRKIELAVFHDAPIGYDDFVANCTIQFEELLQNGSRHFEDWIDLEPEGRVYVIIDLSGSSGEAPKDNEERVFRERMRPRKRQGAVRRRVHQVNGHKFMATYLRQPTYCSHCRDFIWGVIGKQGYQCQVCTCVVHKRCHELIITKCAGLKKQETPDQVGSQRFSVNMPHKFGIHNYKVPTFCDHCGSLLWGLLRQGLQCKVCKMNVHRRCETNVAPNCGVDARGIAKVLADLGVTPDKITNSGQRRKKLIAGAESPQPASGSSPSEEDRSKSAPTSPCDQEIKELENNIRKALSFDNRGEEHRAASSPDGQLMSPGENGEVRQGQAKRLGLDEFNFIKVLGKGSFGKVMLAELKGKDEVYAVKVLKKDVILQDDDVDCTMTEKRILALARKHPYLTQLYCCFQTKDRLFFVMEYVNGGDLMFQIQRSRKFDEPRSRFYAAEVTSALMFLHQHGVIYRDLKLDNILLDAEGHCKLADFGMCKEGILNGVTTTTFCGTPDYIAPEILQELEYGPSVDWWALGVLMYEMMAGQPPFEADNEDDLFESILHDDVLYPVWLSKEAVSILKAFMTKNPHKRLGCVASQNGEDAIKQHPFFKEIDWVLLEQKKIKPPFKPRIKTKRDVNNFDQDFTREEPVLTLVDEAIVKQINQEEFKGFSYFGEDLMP

[4] = biological target: T3, Serine/threonine-protein kinase RIO1 (Homo sapiens) (UniProt Q9BRS2); experiment: Selectivity interaction (KinomeScan (DiscoverX)) EUB0001079a RIOK1; conditions: at 1 µM
T3 sequence (whole entry): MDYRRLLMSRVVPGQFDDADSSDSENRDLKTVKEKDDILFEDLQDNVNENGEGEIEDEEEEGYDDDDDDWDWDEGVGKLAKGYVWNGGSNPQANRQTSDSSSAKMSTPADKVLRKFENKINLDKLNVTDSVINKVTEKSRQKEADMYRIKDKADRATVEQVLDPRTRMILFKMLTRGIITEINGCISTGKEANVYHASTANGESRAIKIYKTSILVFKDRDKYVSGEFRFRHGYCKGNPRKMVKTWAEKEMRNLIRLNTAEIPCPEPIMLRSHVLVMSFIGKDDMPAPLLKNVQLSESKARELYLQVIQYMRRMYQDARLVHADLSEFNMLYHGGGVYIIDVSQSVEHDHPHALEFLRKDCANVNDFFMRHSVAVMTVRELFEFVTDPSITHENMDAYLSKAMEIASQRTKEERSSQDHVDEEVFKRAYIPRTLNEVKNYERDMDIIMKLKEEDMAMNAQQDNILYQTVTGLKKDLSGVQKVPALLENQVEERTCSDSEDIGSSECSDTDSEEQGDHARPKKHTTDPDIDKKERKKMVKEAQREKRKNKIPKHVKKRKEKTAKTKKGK

[5] = biological target: Receptor-interacting serine/threonine-protein kinase 2 (Homo sapiens, UniProt O43353); experiment: Selectivity interaction (KinomeScan (DiscoverX)) EUB0000655a RIPK2; conditions: at 10 µM
Chain of Receptor-interacting serine/threonine-protein kinase 2 (O43353 whole entry): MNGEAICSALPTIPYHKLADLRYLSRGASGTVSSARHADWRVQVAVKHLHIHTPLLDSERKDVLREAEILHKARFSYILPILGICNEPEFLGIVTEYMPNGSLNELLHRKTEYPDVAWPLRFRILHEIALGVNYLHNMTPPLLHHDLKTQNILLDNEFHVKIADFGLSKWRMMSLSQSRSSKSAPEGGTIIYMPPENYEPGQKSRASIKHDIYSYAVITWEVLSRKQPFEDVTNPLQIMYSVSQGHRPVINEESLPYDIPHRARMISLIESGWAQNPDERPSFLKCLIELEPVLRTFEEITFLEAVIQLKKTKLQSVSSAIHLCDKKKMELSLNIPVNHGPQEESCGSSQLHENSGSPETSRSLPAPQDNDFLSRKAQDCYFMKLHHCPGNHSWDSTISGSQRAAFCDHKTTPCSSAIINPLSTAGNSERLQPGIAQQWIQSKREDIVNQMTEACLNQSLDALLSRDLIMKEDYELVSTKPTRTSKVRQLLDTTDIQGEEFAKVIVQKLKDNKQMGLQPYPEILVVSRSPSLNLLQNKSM

[6] = biological target: Serine/threonine-protein kinase Nek6 (Homo sapiens) (UniProt Q9HC98); experiment: Selectivity interaction (SelectScreen profiling (Invitrogen)) EUB0000607a NEK6; conditions: at 2 µM
Chain of Serine/threonine-protein kinase Nek6 (Homo sapiens) (Q9HC98 whole entry): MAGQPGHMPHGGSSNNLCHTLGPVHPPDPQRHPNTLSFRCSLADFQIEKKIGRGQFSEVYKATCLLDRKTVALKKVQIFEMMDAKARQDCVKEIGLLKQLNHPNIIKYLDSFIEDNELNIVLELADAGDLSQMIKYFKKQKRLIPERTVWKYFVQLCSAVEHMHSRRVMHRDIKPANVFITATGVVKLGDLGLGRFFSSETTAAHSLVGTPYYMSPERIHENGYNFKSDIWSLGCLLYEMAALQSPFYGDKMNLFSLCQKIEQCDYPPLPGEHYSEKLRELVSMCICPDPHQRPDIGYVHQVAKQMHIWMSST

hERG (KCNH2) = hERG (KCNH2) (Homo sapiens, UniProt Q12809); experiment: Selectivity interaction (Panel of kinases, GPCRs, ion channels and transporters (enzymatic assay)) EUB0000223bCl KCNH2
Chain of hERG (KCNH2) (Q12809 whole entry): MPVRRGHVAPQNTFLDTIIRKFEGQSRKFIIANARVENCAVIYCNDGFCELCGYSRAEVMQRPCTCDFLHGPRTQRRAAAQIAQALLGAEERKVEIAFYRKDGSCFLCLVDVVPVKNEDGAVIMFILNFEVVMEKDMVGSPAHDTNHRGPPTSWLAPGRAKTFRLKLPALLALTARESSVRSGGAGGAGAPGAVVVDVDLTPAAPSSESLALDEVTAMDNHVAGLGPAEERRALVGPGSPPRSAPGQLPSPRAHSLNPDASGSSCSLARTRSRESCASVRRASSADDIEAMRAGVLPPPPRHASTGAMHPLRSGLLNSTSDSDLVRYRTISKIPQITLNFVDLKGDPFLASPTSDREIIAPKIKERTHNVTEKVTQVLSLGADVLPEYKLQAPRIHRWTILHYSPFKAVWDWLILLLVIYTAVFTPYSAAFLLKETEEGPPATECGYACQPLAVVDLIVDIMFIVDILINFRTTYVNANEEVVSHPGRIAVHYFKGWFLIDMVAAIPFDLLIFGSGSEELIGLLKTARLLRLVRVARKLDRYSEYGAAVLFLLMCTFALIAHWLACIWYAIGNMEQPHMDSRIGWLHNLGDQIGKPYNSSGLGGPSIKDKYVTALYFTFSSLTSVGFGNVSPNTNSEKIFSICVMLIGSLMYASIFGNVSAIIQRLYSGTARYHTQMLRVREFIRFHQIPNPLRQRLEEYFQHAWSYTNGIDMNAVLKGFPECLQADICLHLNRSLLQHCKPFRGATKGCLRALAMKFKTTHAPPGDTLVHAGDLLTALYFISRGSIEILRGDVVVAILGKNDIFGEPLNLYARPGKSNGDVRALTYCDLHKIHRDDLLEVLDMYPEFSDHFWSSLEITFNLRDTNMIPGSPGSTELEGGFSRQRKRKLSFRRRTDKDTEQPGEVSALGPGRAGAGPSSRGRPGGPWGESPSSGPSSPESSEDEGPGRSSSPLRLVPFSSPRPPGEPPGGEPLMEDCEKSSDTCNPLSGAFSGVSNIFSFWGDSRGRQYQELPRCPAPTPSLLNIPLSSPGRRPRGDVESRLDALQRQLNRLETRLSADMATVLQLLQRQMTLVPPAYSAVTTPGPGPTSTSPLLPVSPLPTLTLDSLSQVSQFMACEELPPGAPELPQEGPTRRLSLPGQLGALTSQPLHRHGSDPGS

Chain of Serine/threonine-protein kinase 38 (Homo sapiens) (Q15208 2-465 limits assumed): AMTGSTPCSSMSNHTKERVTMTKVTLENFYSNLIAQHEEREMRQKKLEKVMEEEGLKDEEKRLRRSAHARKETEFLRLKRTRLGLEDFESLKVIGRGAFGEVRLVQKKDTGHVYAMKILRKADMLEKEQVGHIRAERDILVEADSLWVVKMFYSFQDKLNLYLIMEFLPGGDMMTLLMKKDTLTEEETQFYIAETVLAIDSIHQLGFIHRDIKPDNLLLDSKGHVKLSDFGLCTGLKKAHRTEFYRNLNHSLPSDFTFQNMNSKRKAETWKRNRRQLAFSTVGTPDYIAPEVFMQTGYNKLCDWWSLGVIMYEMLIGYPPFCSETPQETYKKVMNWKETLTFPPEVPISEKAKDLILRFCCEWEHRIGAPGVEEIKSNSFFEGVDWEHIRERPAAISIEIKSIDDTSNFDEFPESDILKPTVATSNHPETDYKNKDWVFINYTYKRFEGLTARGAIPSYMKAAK

- % of inhibition ([1]; at 0.01 µM): -3.8%
- % of inhibition ([1]; at 0.04 µM): 5.4%
- % of inhibition ([1]; at 0.2 µM): 31.8%
- % of inhibition ([1]; at 1 µM): 70.6%
- % of inhibition ([1]; at 5 µM): 90%
- % of inhibition [2]: -82.2%
Structure (SMILES): CC[C@@H]1[C@H](F)C(=O)N[C@@H]1COc1nccc2cc(C(N)=O)c(OC)cc12 [ZIMLOVISERTIB]

- % of control [3]: 100%
Structure (SMILES): CCN(CC)CCCCNc1ncc2cc(-c3cc(OC)cc(OC)c3)c(NC(=O)NC(C)(C)C)nc2n1

Structure (SMILES): Nc1cnc(N2CCc3cc(S(=O)(=O)Nc4c(F)cc(Cl)cc4F)cc(N4CCCC4=O)c32)nc1 [TP-020n]
- % of control [4]: 100%

Structure (SMILES): CN(C)CCOc1ccc(-c2nc(-c3ccncc3)c(-c3ccc4c(c3)CC/C4=N\O)[nH]2)cc1
- % of control [5]: 14%

Structure (SMILES): CNC(=O)Nc1ccc(-c2nc(N3CC4CCC(C3)O4)c3cnn(C4CCC5(CC4)OCCO5)c3n2)cc1
- % of inhibition [6]: 12%

Structure (SMILES): COc1cc(C(=O)N2CC[C@@H](O)[C@@H](N)C2)cc2nc(-c3cc4ccccc4n3CC3CC3)n(C)c12
- XC50 (hERG (KCNH2)): 31.6 µM
